Results as given in the OPERA property sets (Mansouri et al. 2018).

logP	Compound
7.18	CCCCCCCCCCCc1ccc(O)cc1
7.17	CCCCCCCCCCCc1ccccc1O
6.3	CCCCCCCCCCCc1cccc(O)c1O
6.98	CCCCCCCCCCCc1cccc(O)c1
3.11	CCCCCc1ccc(O)c(O)c1
5.61	CCCCCCCCCc1cccc(O)c1
8.29	CCCCCCCCCCCCCCCc1ccc(O)cc1O
6.84	CCCCCCCCCCCCCc1ccc(O)cc1O
6.97	CCCCCCCCCCCc1ccc(O)c(O)c1
7.75	CCCCCCCCCCCCCc1cccc(O)c1O
8.61	CCCCCCCCCCCCCc1ccccc1O

Compound	logP
CCCCCCCCCc1ccc(O)cc1	5.76
CCCCCCCCCc1ccccc1O	5.76
CCCCCCCCCCCCc1ccc(O)cc1	7.91
